{"source": "paper PMC9124820", "about": "“In vitro evaluation of fenfluramine and norfenfluramine as victims of drug interactions” (Pharmacology Research & Perspectives, 2022)", "key": {"[1]": {"test": "Metabolic stability and metabolite identity, rat intestinal S9 fractions", "type": "in vitro ADME", "details": "FFA incubation, LC-MS/MS; X = identified", "protocol": "LC‐MS/MS analyses to assess metabolic stability and identify the transporter substrate were performed using an API 4000 QTRAP mass spectrometer (SCIEX, Framingham, MA) with electrospray ionization in positive mode. Chromatography was performed using an Atlantis dC18 analytical column (100 × 2.1 mm, 5 µm; Waters Corporation, Milford, MA). Mobile phases were 0.2% v/v formic acid in water and 0.2% v/v formic acid in acetonitrile. For metabolic stability experiments, FFA and metabolites were eluted at a flow rate of 0.6 mL/min, with a linear gradient of 20%−80% acetonitrile from 0.30−2.0 min. For transporter substrate experiments, the gradient was slightly modified to achieve suitable chromatography. The mass transitions monitored were 232.0 > 159.0 for FFA and 348.0 > 330.0 for 1ʹ‐OH‐midazolam‐d4 internal standard. […]\nFFA (1 or 10 µM) was incubated with liver and intestinal S9 fractions (2 mg protein/mL) at 37 ± 1°C in 0.2‐mL incubation mixtures containing potassium phosphate buffer (50 mM, pH 7.4), magnesium chloride (MgCl2) (3 mM), and EDTA (1 mM, pH 7.4), in the presence or absence of a three‐component cofactor mixture (NADPH‐generating system, uridine diphosphate glucuronic acid (UDPGA) [8 mM], and 3’‐phosphoadenosine 5’‐phosphosulfate [0.5 mM]). […] Supernatant fractions were analyzed by LC‐MS/MS.\nTo characterize substrate loss and metabolic stability, duplicate samples were analyzed by LC‐MS/MS to determine the change in substrate concentration over the incubation period. The rate constant of elimination (kel, min^−1) was determined from the time course of substrate loss based on single exponential decay (A(t)=A0(‐kelt)) . Half‐life in vitro was determined by the following equation: t1/2 = 0.693/kel. The in vitro intrinsic clearance (CLint) was calculated from the rate constant of elimination as follows: CLintμL/min/mgprotein=kelmin^‐1×incubationvolume(μL)/mgproteinperincubation.\nPercent loss of substrate was determined by normalizing the mean analyte peak‐area ratio at each time point to the average of four replicates at the 0‐min time point (100%)."}, "CYP2C19": {"molecular_target": "CYP2C19 (Homo sapiens, UniProt P33261)", "sequence (P33261 whole entry)": "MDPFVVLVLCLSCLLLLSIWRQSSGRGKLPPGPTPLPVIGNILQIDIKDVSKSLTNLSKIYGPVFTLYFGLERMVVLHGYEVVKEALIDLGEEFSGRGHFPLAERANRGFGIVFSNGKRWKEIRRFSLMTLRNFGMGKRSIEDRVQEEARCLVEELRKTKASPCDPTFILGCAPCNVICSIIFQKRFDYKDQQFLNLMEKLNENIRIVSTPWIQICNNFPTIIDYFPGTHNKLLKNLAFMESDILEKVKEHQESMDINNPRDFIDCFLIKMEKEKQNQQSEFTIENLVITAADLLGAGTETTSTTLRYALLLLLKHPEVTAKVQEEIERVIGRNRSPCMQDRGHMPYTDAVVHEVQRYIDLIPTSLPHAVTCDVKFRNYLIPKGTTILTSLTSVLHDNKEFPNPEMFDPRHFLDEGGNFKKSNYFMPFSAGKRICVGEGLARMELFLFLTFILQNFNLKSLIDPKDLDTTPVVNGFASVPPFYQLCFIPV", "test": "in vitro", "details": "microsomes", "protocol": "(§1) To determine the metabolic role of individual CYP450 enzymes more quantitatively, FFA (1 μM) or nFFA (0.1 μM) was manually incubated in duplicate with human liver microsomes (1 mg protein/mL) for 60 min (FFA), or for 0 and 120 min (nFFA), in the presence of direct‐acting or metabolism‐dependent chemical inhibitors. […] Solvent controls were processed in parallel with each inhibitor. Under the conditions described above, incubations were conducted and reactions terminated at 0 or 120 min. Metabolite formation for chemical inhibitors was normalized over time to metabolite formation in the respective solvent controls for each inhibitor. Assays were conducted in duplicate due to the low biological and technical variability expected in this assay; statistical analysis was not possible with duplicate samples."}, "CYP1A2": {"molecular_target": "T1, CYP1A2 (Homo sapiens, UniProt P05177)", "T1 construct": "manually incubated in duplicate with human liver microsomes (1 mg protein/mL); tissue Sekisui XenoTech, LLC; host or cells: pooled human liver microsomes (200 donors)", "T1 sequence (P05177 1-516)": "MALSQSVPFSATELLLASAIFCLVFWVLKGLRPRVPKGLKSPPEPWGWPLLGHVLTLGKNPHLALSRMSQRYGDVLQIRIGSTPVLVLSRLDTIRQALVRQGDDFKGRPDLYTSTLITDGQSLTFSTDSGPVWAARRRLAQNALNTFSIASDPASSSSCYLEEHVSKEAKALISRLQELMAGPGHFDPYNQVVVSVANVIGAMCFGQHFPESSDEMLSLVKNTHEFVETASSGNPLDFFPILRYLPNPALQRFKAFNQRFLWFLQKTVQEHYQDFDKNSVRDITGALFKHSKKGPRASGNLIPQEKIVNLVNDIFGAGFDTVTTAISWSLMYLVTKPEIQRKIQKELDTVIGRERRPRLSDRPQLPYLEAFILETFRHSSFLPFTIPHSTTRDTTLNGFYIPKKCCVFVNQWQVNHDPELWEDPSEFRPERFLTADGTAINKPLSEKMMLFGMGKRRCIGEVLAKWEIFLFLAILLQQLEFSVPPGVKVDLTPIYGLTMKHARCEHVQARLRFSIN", "test": "Chemical inhibition of FFA metabolism in human liver microsomes, CYP1A2", "type": "in vitro ADME", "details": "probe FFA (1 µM), demethylation to nFFA, inhibitor 10 µM, metabolism-dependent, read-out: Reduction in FFA demethylation (percent inhibition by a selective inhibitor)", "protocol": "as §1"}, "CYP3A4/5": {"system": "CYP3A4/5", "details": "inhibitor 0.1, 0.5, 1 µM, direct-acting; FFA 1 μM, human liver microsomes", "protocol": "as §1"}, "CYP2B6": {"molecular_target": "T2, CYP2B6 (Homo sapiens, UniProt P20813)", "T2 construct": "manually incubated in duplicate with human liver microsomes (1 mg protein/mL); tissue Sekisui XenoTech, LLC; host or cells: pooled human liver microsomes (200 donors)", "T2 sequence (P20813 1-491)": "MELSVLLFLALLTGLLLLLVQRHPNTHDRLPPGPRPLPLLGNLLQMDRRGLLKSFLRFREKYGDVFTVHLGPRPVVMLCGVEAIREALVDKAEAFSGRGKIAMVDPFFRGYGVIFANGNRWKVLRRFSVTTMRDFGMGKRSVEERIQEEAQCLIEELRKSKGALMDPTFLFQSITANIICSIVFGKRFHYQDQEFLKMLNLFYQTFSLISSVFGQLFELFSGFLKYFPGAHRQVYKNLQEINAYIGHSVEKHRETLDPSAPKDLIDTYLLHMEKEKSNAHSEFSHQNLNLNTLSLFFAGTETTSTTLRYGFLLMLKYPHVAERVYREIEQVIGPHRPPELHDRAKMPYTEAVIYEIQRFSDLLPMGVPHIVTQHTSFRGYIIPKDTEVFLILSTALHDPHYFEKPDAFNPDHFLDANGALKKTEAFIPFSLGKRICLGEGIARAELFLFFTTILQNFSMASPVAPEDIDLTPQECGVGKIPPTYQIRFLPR", "test": "Chemical inhibition of FFA metabolism in human liver microsomes, CYP2B6", "type": "in vitro ADME", "details": "probe FFA (1 µM), demethylation to nFFA, inhibitor 30 µM, metabolism-dependent, read-out: Reduction in FFA demethylation (percent inhibition by a selective inhibitor)", "protocol": "as §1"}, "CYP2D6": {"molecular_target": "CYP2D6 (Homo sapiens, UniProt P10635)", "sequence (P10635 whole entry)": "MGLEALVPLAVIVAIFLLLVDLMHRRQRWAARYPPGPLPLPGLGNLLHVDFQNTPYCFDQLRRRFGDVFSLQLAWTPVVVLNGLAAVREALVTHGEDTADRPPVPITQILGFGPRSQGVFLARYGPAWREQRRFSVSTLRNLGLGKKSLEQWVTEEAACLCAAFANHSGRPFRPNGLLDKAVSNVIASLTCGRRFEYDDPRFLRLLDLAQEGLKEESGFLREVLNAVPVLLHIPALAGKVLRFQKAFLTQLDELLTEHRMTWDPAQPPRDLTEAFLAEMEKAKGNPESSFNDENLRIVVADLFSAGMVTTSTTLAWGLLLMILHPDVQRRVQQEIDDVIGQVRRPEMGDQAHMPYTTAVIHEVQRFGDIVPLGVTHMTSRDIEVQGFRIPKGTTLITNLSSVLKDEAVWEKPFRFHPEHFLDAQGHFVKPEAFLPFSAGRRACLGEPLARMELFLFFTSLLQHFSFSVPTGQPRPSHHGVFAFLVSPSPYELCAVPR", "test": "in vitro", "details": "microsomes", "protocol": "as §1"}, "CYP2C9": {"molecular_target": "T3, CYP2C9 (Homo sapiens, UniProt P11712)", "T3 construct": "manually incubated in duplicate with human liver microsomes (1 mg protein/mL); tissue Sekisui XenoTech, LLC; host or cells: pooled human liver microsomes (200 donors)", "T3 sequence (P11712 whole entry)": "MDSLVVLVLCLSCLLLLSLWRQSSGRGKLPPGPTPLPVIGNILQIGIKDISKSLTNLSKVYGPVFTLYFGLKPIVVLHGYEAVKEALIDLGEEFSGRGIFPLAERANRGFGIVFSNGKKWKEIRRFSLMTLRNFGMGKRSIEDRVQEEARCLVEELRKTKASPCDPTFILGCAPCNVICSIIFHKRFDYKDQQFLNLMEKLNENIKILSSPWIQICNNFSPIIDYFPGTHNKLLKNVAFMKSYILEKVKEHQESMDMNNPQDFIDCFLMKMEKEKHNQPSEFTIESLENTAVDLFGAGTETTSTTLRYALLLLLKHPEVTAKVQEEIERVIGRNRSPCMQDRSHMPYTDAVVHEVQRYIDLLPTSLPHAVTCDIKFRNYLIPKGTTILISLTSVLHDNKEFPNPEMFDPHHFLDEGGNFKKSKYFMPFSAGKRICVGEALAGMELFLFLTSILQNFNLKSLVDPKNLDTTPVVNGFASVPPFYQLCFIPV", "test": "Chemical inhibition of FFA metabolism in human liver microsomes, CYP2C9", "type": "in vitro ADME", "details": "inhibitor 20 µM, metabolism-dependent", "protocol": "as §1"}, "BCRP": {"molecular_target": "T4, BCRP (Homo sapiens, UniProt Q9UNQ0)", "T4 sequence (Q9UNQ0 1-655)": "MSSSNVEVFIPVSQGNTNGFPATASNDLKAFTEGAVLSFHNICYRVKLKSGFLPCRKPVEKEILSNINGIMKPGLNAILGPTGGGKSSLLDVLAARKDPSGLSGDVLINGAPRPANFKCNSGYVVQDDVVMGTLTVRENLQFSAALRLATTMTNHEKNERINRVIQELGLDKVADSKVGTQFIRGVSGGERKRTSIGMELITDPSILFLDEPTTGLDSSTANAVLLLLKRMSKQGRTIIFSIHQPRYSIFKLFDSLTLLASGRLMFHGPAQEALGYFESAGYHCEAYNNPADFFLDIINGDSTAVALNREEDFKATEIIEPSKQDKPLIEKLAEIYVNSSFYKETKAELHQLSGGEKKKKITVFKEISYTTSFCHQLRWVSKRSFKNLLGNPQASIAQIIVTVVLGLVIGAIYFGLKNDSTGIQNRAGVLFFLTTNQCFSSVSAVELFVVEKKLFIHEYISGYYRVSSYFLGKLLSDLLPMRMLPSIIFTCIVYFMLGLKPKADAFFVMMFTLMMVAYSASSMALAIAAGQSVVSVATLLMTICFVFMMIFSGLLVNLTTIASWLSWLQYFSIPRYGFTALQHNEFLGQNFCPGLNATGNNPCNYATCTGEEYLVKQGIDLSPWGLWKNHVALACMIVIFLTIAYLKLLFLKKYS", "details": "cited from earlier work"}, "P‐gp": {"molecular_target": "P‐gp (Homo sapiens, UniProt P08183)", "sequence (P08183 whole entry)": "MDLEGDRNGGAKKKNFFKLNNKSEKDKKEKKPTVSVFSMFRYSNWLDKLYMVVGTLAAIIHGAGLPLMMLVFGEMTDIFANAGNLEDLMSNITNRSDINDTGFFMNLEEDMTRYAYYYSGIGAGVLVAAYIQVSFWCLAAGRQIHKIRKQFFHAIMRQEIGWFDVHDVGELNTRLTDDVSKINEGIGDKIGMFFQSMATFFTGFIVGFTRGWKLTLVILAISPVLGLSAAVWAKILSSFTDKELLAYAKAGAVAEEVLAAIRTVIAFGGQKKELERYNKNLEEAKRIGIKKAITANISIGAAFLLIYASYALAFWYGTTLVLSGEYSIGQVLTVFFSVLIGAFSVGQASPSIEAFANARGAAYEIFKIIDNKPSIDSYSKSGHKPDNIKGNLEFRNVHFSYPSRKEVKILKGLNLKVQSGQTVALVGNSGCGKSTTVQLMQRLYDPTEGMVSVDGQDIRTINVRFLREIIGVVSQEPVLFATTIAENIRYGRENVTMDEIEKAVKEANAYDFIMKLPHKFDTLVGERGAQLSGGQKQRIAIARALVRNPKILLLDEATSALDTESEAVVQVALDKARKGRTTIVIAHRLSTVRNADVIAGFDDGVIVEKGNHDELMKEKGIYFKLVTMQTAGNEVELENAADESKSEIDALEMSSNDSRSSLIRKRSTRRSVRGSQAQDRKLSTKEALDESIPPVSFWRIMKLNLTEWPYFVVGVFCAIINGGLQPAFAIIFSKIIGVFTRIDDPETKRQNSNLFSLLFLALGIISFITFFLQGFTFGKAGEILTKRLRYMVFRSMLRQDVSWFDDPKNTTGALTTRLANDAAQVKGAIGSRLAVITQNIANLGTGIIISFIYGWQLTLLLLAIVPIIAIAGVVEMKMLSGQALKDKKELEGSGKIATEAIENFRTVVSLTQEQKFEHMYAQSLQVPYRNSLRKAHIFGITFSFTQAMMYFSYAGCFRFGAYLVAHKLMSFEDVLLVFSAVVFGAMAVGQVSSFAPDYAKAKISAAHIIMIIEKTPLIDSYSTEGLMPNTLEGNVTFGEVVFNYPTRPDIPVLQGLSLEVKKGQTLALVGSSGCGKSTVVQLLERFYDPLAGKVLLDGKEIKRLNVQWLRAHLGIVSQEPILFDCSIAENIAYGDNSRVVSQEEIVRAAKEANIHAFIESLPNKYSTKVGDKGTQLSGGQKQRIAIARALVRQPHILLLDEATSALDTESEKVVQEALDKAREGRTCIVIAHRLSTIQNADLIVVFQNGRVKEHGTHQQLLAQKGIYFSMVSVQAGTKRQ", "details": "cited from earlier work"}}, "note": "Counter-ions that a name gives are not always drawn."}
{"smiles": "CC(Cc1cccc(C(F)(F)F)c1)NO", "note": "(centres unmarked) [C2]", "values": [{"measurement": "identified in Intestinal S9 fractions, Rat", "setting": "[1]", "value": "trace"}]}
{"smiles": "COc1ccc2nc([S@@+]([O-])Cc3ncc(C)c(OC)c3C)[nH]c2c1", "note": "[Esomeprazole, esomeprazole]", "values": [{"measurement": "Reduction in FFA demethylation (percent inhibition by a selective inhibitor)", "setting": "CYP2C19; 60 min, 10 µM", "value": 8, "unit": "%"}, {"measurement": "inhibition at 60 min, 10 µM", "setting": "CYP2C19; Reduction in FFA demethylation (percent inhibition by a selective inhibitor)", "value": "< 15", "unit": "%"}]}
{"smiles": "Cc1nc2c([nH]1)c(=O)n(C)c(=O)n2Cc1ccco1", "note": "[Furafylline, furafylline]", "values": [{"measurement": "inhibition at 60 min, 10 µM", "setting": "CYP1A2", "value": 32, "unit": "%"}]}
{"smiles": "CC(=O)N1CCN(c2ccc(OCC3COC(Cn4ccnc4)(c4ccc(Cl)cc4Cl)O3)cc2)CC1", "note": "(centres unmarked) [Ketoconazole, ketoconazole]", "values": [{"measurement": "Reduction in FFA demethylation (percent inhibition by a selective inhibitor)", "setting": "CYP3A4/5", "value": "None"}]}
{"smiles": "c1ccc(C2(N3CCCCC3)CCCCC2)cc1", "note": "[Phencyclidine, phencyclidine hydrochloride]", "values": [{"measurement": "inhibition at 60 min, 30 µM", "setting": "CYP2B6", "value": 42, "unit": "%"}]}
{"smiles": "C=C[C@H]1C[N@@]2CC[C@H]1C[C@@H]2[C@@H](O)c1ccnc2ccc(OC)cc12", "note": "[Quinidine, quinidine]", "values": [{"measurement": "inhibition at 60 min, 1 µM", "setting": "CYP2D6", "value": 37, "unit": "%"}]}
{"smiles": "O=C(O)COc1ccc(C(=O)c2cccs2)c(Cl)c1Cl", "note": "[Tienilic acid]", "values": [{"measurement": "inhibition at 60 min, 20 µM", "setting": "CYP2C9; human, liver microsomes, probe FFA (1 µM), demethylation to nFFA, read-out: Reduction in FFA demethylation (percent inhibition by a selective inhibitor)", "value": "< 15", "unit": "%"}, {"measurement": "Reduction in FFA demethylation (percent inhibition by a selective inhibitor)", "setting": "CYP2C9; FFA 1 μM", "value": 14, "unit": "%"}]}
{"smiles": "NC(=O)N1c2ccccc2C=Cc2ccccc21", "note": "[carbamazepine]", "values": [{"measurement": "substrate capacity for BCRP", "setting": "BCRP", "value": "did not show substrate capacity"}, {"measurement": "substrate capacity for P‐gp", "setting": "P‐gp", "value": "did not show substrate capacity"}]}
{"smiles": "CC[C@@H](C(N)=O)N1CCCC1=O", "note": "[levetiracetam]", "values": [{"measurement": "substrate capacity for BCRP", "setting": "BCRP", "value": "did not show substrate capacity"}, {"measurement": "substrate capacity for P‐gp", "setting": "P‐gp", "value": "did not show substrate capacity"}]}
{"smiles": "CCC1(c2ccccc2)C(=O)NC(=O)NC1=O", "note": "[phenobarbital]", "values": [{"measurement": "substrate capacity for BCRP", "setting": "BCRP", "value": "did not show substrate capacity"}]}
{"smiles": "O=C1NC(=O)C(c2ccccc2)(c2ccccc2)N1", "note": "[phenytoin]", "values": [{"measurement": "substrate capacity for BCRP", "setting": "BCRP", "value": "did not show substrate capacity"}, {"measurement": "substrate capacity for P‐gp", "setting": "P‐gp", "value": "did not show substrate capacity"}]}
{"smiles": "CC1(C)O[C@@H]2[C@@H](CO[C@@]3(COS(N)(=O)=O)OC(C)(C)O[C@@H]23)O1", "note": "[topiramate]", "values": [{"measurement": "substrate capacity for BCRP", "setting": "BCRP", "value": "did not show substrate capacity"}, {"measurement": "substrate capacity for P‐gp", "setting": "P‐gp", "value": "did not show substrate capacity"}]}
{"smiles": "CCCC(CCC)C(=O)O", "note": "[valproate]", "values": [{"measurement": "substrate capacity for BCRP", "setting": "BCRP", "value": "did not show substrate capacity"}, {"measurement": "substrate capacity for P‐gp", "setting": "P‐gp", "value": "did not show substrate capacity"}]}
